Test results as given in ChEMBL document CHEMBL1146611, “Design and synthesis of novel pyrrolidine-containing bradykinin antagonists” (Bioorg Med Chem Lett, 2003).

Tests used:
[1] = target: T1, B2 bradykinin receptor (Homo sapiens) (UniProt P30411); experiment: In vitro binding affinity against Bradykinin receptor B2 at 1 uM concentration
T1 sequence (whole entry): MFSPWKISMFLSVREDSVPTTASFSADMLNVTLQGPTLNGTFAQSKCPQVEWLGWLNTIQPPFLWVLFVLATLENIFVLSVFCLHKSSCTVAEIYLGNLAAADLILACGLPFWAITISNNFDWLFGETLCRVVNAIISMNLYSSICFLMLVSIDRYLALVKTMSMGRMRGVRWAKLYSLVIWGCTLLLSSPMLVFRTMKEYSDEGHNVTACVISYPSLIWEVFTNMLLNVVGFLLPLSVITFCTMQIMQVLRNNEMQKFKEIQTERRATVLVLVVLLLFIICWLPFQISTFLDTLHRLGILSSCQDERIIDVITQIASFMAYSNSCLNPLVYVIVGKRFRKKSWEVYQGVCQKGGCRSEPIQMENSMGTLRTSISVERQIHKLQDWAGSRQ

[2] = target: T2, B1 bradykinin receptor (Homo sapiens) (UniProt P46663); experiment: In vitro binding affinity against Bradykinin receptor B1 at 1 uM concentration
T2 sequence (whole entry): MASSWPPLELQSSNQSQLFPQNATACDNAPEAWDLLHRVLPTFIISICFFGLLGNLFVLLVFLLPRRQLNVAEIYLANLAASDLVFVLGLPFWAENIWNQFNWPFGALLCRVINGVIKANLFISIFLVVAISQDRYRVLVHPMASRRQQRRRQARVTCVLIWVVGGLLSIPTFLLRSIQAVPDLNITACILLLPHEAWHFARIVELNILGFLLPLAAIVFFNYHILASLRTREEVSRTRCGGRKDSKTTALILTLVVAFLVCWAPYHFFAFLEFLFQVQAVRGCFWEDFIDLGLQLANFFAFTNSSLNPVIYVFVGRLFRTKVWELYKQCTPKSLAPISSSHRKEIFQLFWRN

B2 bradykinin receptor = target: T3, B2 bradykinin receptor (Homo sapiens, UniProt P30411); experiment: In vitro binding affinity against Bradykinin receptor B2
T3 sequence (P30411 whole entry): T1 sequence (whole entry)

SMILES	inhibition [1]	inhibition [2]	Ki (B2 bradykinin receptor)
CC(=O)Nc1ccc(/C=C/C(=O)NC[C@H]2CCCN2c2ccc(C)c(COc3cccc4ccc(C)nc34)c2C)cn1	76%	1%	46 nM
Cc1ccc2cccc(OCc3c(C)ccc(N4CCC[C@H]4C(=O)O)c3C)c2n1	19%	6%	
CC(=O)Nc1ccc(/C=C/C(=O)NC[C@@H]2CCCN2c2ccc(C)c(COc3cccc4ccc(C)nc34)c2C)cn1	84%	1%	33 nM
Cc1ccc2cccc(OCc3c(C)ccc(N4CCC[C@@H]4C(=O)O)c3C)c2n1	11%	1%	

The remaining lines, values ahead:

inhibition [1]	inhibition [2]	Ki (B2 bradykinin receptor)	SMILES
8%	1%		Cc1ccc2cccc(OCc3c(C)ccc(N4CCC[C@@H]4CN4C(=O)c5ccccc5C4=O)c3C)c2n1
12%	9%		Cc1ccc2cccc(OCc3c(C)ccc(N4CCC[C@@H]4CO)c3C)c2n1
8%	5%		Cc1ccc2cccc(OCc3c(C)ccc(N4CCC[C@H]4CN4C(=O)c5ccccc5C4=O)c3C)c2n1
19%	1%		Cc1ccc2cccc(OCc3c(C)ccc(N4CCC[C@H]4CO)c3C)c2n1
